The values below come from US9682999B2, “Benzofuran compounds for the treatment of hepatitis C virus infections” (Glaxo Group Limited, priority 2011, dated 2017).

For data set [1], the system named is sub-genomic HCV NS3-NS5B replicon genotype 1b C316N (Huh-7 cells). Nature of the data set: Replicon luciferase cell based assay, genotype 1b C316N. The conditions noted are these: Hepatitis C virus, Huh-7, 48 h, read-out: EC50 1b 316N. The essentials:
(§1)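 Huh-7 cells stably carrying luciferase-linked NS3-NS5B replicons (1b ET, 1a H77 with P1496L/S2204I, plus C316N/C316Y NS5B mutants) treated with a 10-point 1:3 compound series for 48 h at 37 °C. Inhibition read as Steady-Glo luminescence against compound-free cells after background subtraction. EC50 from curve fit, averaged over two plates.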

The nature of data set [2]: In vivo pharmacokinetic study, rat. The procedure: (§2) In vivo pharmacokinetic studies were conducted in mouse, rat, dog, or cynomolgus monkey to determine clearance, oral exposure and bioavailability (% F). Solution doses of the compounds were administered intravenously through catheters or orally by gavage. Blood samples were collected at the following time points (n=2 or 3/route/species): 0.083 (IV only), 0.167 (IV only), 0.25, 0.5, 1, 2, 4, 6, 8, 12, and 24 h. Non-compartmental pharmacokinetic parameters were determined using Phoenix Winnonlin 6.1 (Pharsight, Mountain View, Calif.). Bioavailability of the oral formulation of each compound were calculated as the ratio of the oral dose normalized AUCinf to the intravenous dose normalized AUCinf. Results are expressed in Table 2.

The test system of data set [3] is sub-genomic HCV NS3-NS5B replicon genotype 1b (Huh-7 cells). As to the kind of experiment: Replicon luciferase cell based assay, genotype 1b. The following applies: Hepatitis C virus; Huh-7 genotype 1b luciferase replicon, 48 hours; read-out: EC50 GT1b. In short, it runs like this:
as §1

Data set [4] can be described thus: Hepatocyte incubations, metabolic stability. It counts as in vitro ADME. More on the design: dose or concentration left out as unconfirmed. The following applies: cryopreserved human hepatocytes, 0.25×10^6 cells, up to 120 min, 37 C. The procedure: Hepatocyte incubations were conducted using cryopreserved hepatocytes purchased from CellzDirect (Durham, N.C.). Cryopreserved hepatocytes were removed from liquid nitrogen and thawed according to XenoTech's guidelines listed in “XenoTech Protocol for Thawing Cryopreserved Hepatocytes” using Hepatocyte Isolation Kit K2000 (Dec. 13, 2004). Hepatocytes were diluted to 1 million cells in 1 mL of Williams E media containing 25 mM HEPES buffer and 2 mM Glutamax.
Hepatocyte incubations were carried out in 96-well plates on an Eppendorf shaker at 350 rpm at 37 C. Reaction mixtures consisted of 0.25×10^6 cells and […] test compound (to maintain a 0.05% final DMSO concentration) in a final volume of 0.5 mL. An initial time-point (t0) was collected and subsequent aliquots were collected at 15, 30, 60, 90, and 120 min. Reactions were terminated by transferring […] of the incubation mixture into a 96-well plate containing […] of an organic mixture [acetonitrile and methanol (80:20)] at 4° C. Precipitated protein was removed by centrifugation and the resultant supernatant was transferred to a new 96-well polypropylene plate for LC/MS/MS analysis. Drug-free matrix control and 2 QC standards (phenacetin and propranolol) were included in each experiment and treated in the same manner as test compound.
Metabolic stability expressed as the percentage of parent compound remaining was calculated from the peak area ratio of compound remaining after incubation (tx) compared to the time zero (t0) incubation.
The half-life (t1/2) was calculated using the following equation: […]
Where K is the slope of the ln % remaining vs. time regression. Half-life values were only reported when at least 15% loss of parent compound was observed.

The subject of data set [5] is sub-genomic HCV NS3-NS5B replicon genotype 1a C316Y (Huh-7 cells). Nature of the data set: Replicon luciferase cell based assay, genotype 1a C316Y. The following applies: Hepatitis C virus, Huh-7, 48 h, read-out: EC50 1a 316Y. The essentials:
as §1

A short description of data set [6]: In vivo pharmacokinetic study, monkey. Further details: species or system cynomolgus monkey. The procedure:
as §2

Data set [7] can be described thus: In vivo pharmacokinetic study, mouse. The procedure:
as §2

For data set [8], the system named is sub-genomic HCV NS3-NS5B replicon genotype 1a (Huh-7 cells). As to the kind of experiment: Replicon luciferase cell based assay, genotype 1a. The following applies: Hepatitis C virus; Huh-7 genotype 1a luciferase replicon, 48 hours; read-out: EC50 GT 1a. In short, it runs like this: as §1
A short description of data set [9]: In vivo pharmacokinetic study, dog. The procedure:
as §2

For the compound `CNC(=O)c1c(-c2ccc(F)cc2)oc2cc(N(c3cc(Cl)c4c(c3)COB4O)S(C)(=O)=O)c(C3CC3)cc12` [Example 15, 6-(N-(7-chloro-1-hydroxy-1,3-dihydrobenzo[c][1,2]oxaborol-5-yl)methylsulfonamido)-5-cyclopropyl-2-(4-fluorophenyl)-N-methylbenzofuran-3-carboxamide], the EC50 in data set [1] was in the range of 1 to 10 nM; in data set [3], 1 to 10 nM; in data set [5], 11 to 200 nM; in [8], 1 to 10 nM. The DNAUC in data set [2] (Rat) worked out at 1089 ng·h/mL/mg/kg; in data set [7] (Mouse), 14603 ng·h/mL/mg/kg; in [9] (Dog), 11480 ng·h/mL/mg/kg. Besides, the “T 1/2” value in [2] (Rat) was found to be 2.8 H; in [6] (Monkey), 3.7 H; in data set [7] (Mouse) it was 8.4 H; in data set [9] (Dog), 6.9 H. Moreover, the clearance in data set [2] (rat, blood, intravenous) amounted to 6.9 mL/min/kg; in data set [6] (cynomolgus monkey, blood, intravenous), 5.7 mL/min/kg; in data set [7] (mouse, blood, intravenous) it was 0.7 mL/min/kg; in data set [9] (dog, blood, intravenous), 1.2 mL/min/kg. Further, the Vd in [2] (rat, blood, intravenous, read-out: Vss) worked out at 0.9 L/kg; in data set [6] (cynomolgus monkey, blood, intravenous, read-out: Vss) it was 1.2 L/kg; in data set [7] (mouse, blood, intravenous, read-out: Vss), 0.4 L/kg; in data set [9] (dog, blood, intravenous, read-out: Vss), 0.6 L/kg. The bioavailability in data set [2] (rat, blood, oral) came to 43%; in data set [7] (mouse, blood, oral), 39%; in [9] (dog, blood, oral), 82%. This compound also yielded a half-life in data set [4] of more than 6 h.
